What all share (experiment): biochemical
What all share (format): biochemical

Experiment [1] deals with 363 human kinases (including Aurora A/B/C) (Homo sapiens, UniProt P49759). Conditions: CLK1, [ATP] 2.5 µM; for remaining activity at 0.5 µM / remaining activity at 0.1 µM: read-out: % Enzyme Activity (relative to DMSO controls); for remaining activity at 0.1 µM: 100 nM.
From the text: (§1) However, the Aurora A/B selectivity ratios derived from our in vitro and in vivo data can be compared to prioritize inhibitors.
Experiment [2] has as its target T1, 363 human kinases (including Aurora A/B/C) (Homo sapiens, UniProt O15530).
T1 sequence (O15530 1-556): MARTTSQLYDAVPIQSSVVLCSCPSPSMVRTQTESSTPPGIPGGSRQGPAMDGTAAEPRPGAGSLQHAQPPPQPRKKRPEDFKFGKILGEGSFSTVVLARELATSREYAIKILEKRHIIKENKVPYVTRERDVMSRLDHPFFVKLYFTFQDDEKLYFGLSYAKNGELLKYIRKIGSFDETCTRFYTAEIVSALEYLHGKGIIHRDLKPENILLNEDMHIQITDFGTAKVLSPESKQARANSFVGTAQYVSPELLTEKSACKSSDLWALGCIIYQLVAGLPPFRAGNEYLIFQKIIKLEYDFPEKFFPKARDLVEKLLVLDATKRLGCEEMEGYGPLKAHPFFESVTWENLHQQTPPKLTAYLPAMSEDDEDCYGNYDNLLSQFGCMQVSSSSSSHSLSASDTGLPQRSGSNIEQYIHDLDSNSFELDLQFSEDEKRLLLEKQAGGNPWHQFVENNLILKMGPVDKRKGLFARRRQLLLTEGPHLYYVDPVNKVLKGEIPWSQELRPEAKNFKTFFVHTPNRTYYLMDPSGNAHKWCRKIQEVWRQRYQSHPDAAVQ
Conditions: PDK1/PDPK1; for remaining activity at 0.5 µM / remaining activity at 0.1 µM: read-out: % Enzyme Activity (relative to DMSO controls); for remaining activity at 0.1 µM: 100 nM.
From the text: as §1

The target in experiment [3] is 363 human kinases (including Aurora A/B/C) (Homo sapiens, UniProt Q15759). Conditions: P38b/MAPK11; for remaining activity at 0.5 µM / remaining activity at 0.1 µM: read-out: % Enzyme Activity (relative to DMSO controls); for remaining activity at 0.1 µM: 100 nM.
From the text: as §1
The target in experiment [4] is 363 human kinases (including Aurora A/B/C) (Homo sapiens, UniProt P27361). As to conditions: ERK1, [ATP] 100 µM; for remaining activity at 0.5 µM / remaining activity at 0.1 µM: read-out: % Enzyme Activity (relative to DMSO controls); for remaining activity at 0.1 µM: 100 nM.
From the text: as §1
Experiment [5] deals with 363 human kinases (including Aurora A/B/C) (Homo sapiens, UniProt P00533). As to conditions: EGFR, [ATP] 1 µM; for remaining activity at 0.5 µM / remaining activity at 0.1 µM: read-out: % Enzyme Activity (relative to DMSO controls); for remaining activity at 0.1 µM: 100 nM.
From the text: as §1
Experiment [6] concerns the target T2, 363 human kinases (including Aurora A/B/C) (Homo sapiens, UniProt O14733).
T2 sequence (O14733 1-419): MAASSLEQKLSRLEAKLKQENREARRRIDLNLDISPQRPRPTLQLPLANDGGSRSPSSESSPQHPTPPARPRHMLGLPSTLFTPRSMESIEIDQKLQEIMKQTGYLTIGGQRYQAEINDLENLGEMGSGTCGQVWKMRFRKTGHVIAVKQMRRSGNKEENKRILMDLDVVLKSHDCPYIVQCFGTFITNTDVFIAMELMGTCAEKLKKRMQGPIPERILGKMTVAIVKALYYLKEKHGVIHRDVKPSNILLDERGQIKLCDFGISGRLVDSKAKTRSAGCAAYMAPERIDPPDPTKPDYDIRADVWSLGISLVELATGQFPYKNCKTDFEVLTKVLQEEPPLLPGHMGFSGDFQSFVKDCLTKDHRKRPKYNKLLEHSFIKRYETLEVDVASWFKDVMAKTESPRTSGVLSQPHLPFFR
Conditions: MKK7; for remaining activity at 0.5 µM / remaining activity at 0.1 µM: read-out: % Enzyme Activity (relative to DMSO controls); for remaining activity at 0.1 µM: 100 nM.
From the text: as §1

The target in experiment [7] is 363 human kinases (including Aurora A/B/C) (Homo sapiens, UniProt P37173). Conditions: TGFBR2; for remaining activity at 0.5 µM / remaining activity at 0.1 µM: read-out: % Enzyme Activity (relative to DMSO controls); for remaining activity at 0.1 µM: 100 nM.
From the text: as §1
The target of experiment [8] is T3, 363 human kinases (including Aurora A/B/C) (Homo sapiens, UniProt Q9BXA7).
T3 sequence (Q9BXA7 1-367): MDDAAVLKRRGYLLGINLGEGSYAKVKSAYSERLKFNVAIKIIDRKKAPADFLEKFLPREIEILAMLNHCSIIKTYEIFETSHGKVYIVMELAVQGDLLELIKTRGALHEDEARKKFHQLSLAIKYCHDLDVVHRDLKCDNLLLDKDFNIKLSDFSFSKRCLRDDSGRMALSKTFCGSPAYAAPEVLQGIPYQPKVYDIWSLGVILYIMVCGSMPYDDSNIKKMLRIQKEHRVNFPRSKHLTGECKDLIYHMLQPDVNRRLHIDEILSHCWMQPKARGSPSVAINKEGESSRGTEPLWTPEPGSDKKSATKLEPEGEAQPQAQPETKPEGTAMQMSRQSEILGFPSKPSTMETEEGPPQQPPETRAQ
Conditions: STK22D/TSSK1; for remaining activity at 0.5 µM / remaining activity at 0.1 µM: read-out: % Enzyme Activity (relative to DMSO controls); for remaining activity at 0.1 µM: 100 nM.
From the text: as §1

The target in experiment [9] is T4, 363 human kinases (including Aurora A/B/C) (Homo sapiens, UniProt Q9NR20).
T4 sequence (Q9NR20 1-520): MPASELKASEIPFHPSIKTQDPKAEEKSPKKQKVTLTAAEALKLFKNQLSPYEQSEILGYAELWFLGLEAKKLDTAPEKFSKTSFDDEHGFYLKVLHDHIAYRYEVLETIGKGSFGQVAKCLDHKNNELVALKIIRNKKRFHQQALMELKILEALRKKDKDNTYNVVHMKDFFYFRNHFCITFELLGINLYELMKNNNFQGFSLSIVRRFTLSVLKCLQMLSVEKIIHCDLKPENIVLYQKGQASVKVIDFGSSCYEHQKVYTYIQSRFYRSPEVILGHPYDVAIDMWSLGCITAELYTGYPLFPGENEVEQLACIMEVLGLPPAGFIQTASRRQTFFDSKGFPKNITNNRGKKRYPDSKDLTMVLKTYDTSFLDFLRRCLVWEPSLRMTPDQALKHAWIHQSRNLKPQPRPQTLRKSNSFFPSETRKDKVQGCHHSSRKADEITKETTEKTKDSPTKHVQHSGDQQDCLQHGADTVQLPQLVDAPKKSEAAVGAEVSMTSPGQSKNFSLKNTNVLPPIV
Conditions: DYRK4, [ATP] 2.5 µM; for remaining activity at 0.5 µM / remaining activity at 0.1 µM: read-out: % Enzyme Activity (relative to DMSO controls); for remaining activity at 0.1 µM: 100 nM.
From the text: as §1

In experiment [10] the target is 363 human kinases (including Aurora A/B/C) (Homo sapiens, UniProt Q9Y463). As to conditions: DYRK1B, [ATP] 20 µM; for remaining activity at 0.5 µM / remaining activity at 0.1 µM: read-out: % Enzyme Activity (relative to DMSO controls); for remaining activity at 0.1 µM: 100 nM.
From the text: as §1
Experiment [11] has as its target 363 human kinases (including Aurora A/B/C) (Homo sapiens, UniProt Q9Y2H1). As to conditions: STK38L/NDR2; for remaining activity at 0.5 µM / remaining activity at 0.1 µM: read-out: % Enzyme Activity (relative to DMSO controls); for remaining activity at 0.1 µM: 100 nM.
From the text: as §1
Experiment [12] has as its target 363 human kinases (including Aurora A/B/C) (Homo sapiens, UniProt Q9H0K1). As to conditions: SIK2; for remaining activity at 0.5 µM / remaining activity at 0.1 µM: read-out: % Enzyme Activity (relative to DMSO controls); for remaining activity at 0.1 µM: 100 nM.
From the text: as §1

SMILES strings stand for the structures.

Sequence of 363 human kinases (including Aurora A/B/C) (Homo sapiens, UniProt P49759) (P49759 whole entry): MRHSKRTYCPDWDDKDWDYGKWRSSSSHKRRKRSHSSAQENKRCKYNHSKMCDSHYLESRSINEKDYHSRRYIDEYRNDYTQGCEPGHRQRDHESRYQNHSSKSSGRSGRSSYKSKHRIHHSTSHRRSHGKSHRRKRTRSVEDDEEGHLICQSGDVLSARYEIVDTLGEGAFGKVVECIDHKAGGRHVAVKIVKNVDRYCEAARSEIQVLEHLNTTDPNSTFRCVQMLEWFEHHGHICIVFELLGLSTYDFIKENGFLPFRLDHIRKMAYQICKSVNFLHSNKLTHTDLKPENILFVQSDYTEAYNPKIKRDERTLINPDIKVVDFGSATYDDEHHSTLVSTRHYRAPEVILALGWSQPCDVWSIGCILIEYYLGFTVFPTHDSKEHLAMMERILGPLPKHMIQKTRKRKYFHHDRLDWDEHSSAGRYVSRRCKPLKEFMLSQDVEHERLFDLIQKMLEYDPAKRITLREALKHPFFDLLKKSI
Sequence of 363 human kinases (including Aurora A/B/C) (Homo sapiens, UniProt Q9Y2H1) (Q9Y2H1 whole entry): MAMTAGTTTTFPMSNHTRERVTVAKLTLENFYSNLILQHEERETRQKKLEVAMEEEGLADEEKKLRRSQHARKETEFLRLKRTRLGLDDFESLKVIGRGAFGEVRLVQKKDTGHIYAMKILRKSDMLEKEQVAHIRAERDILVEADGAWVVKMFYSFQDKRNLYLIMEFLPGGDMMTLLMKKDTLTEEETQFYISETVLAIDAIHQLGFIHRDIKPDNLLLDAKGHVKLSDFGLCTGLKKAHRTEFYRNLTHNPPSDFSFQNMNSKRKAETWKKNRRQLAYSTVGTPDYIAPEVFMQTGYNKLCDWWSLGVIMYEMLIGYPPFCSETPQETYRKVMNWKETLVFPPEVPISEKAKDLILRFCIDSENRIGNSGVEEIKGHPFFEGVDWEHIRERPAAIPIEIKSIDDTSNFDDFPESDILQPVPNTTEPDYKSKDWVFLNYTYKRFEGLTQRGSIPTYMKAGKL
Sequence of 363 human kinases (including Aurora A/B/C) (Homo sapiens, UniProt Q9Y463) (Q9Y463 whole entry): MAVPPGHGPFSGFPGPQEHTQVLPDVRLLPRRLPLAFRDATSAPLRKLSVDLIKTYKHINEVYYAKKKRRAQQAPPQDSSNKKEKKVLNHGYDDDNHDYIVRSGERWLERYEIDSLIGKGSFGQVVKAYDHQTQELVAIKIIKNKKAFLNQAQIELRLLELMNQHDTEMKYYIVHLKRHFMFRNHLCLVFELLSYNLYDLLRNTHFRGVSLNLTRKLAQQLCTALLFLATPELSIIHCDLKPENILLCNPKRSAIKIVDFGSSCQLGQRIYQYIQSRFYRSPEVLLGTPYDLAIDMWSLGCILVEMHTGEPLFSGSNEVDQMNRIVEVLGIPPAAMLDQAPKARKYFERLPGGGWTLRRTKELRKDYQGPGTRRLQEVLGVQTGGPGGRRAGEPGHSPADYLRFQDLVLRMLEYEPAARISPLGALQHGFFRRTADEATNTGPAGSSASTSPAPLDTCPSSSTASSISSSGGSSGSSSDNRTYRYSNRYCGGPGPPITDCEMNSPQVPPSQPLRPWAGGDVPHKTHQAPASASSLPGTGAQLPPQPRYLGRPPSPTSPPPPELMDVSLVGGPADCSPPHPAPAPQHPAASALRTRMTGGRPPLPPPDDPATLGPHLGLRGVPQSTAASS
Sequence of 363 human kinases (including Aurora A/B/C) (Homo sapiens, UniProt P27361) (P27361 whole entry): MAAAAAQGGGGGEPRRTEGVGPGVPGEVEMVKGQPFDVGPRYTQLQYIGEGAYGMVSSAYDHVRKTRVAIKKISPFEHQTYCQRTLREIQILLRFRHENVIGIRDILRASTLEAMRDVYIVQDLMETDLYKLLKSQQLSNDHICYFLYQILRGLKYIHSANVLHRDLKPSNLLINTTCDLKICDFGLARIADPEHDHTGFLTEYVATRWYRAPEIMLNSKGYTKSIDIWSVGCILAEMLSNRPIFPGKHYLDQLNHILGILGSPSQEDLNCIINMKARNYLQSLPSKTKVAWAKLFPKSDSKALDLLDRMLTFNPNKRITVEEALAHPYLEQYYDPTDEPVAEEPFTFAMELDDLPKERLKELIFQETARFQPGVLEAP
Sequence of 363 human kinases (including Aurora A/B/C) (Homo sapiens, UniProt P00533) (P00533 25-1210): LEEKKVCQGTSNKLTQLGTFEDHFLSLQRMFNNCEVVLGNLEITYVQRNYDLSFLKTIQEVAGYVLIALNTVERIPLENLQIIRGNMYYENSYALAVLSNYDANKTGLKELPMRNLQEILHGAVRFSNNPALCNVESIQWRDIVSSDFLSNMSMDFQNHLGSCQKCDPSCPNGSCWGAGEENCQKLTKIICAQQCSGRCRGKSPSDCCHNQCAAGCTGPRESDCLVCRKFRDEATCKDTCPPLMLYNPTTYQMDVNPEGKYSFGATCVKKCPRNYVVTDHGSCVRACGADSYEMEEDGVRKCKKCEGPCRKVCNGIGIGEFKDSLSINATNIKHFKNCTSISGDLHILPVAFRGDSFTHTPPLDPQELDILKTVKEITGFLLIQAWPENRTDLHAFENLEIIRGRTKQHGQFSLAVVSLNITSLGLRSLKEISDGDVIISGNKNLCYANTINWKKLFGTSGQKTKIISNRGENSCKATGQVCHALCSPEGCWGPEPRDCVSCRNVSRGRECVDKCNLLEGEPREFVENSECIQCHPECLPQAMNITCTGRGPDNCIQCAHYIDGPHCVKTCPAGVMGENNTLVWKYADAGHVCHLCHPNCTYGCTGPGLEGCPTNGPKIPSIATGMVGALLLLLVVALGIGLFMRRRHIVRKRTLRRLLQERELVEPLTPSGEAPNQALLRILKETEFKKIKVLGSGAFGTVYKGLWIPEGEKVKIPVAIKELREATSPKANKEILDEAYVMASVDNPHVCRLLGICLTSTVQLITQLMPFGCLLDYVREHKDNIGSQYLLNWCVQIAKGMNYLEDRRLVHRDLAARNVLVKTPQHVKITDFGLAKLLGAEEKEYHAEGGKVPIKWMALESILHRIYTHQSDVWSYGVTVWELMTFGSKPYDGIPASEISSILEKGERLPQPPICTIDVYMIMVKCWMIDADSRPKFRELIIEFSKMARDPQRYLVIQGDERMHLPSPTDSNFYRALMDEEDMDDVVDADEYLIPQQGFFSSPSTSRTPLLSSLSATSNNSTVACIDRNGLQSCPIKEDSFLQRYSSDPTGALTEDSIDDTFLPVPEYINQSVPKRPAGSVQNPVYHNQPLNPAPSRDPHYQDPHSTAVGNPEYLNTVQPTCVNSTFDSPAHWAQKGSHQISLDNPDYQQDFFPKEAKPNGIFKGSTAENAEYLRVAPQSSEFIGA
Sequence of 363 human kinases (including Aurora A/B/C) (Homo sapiens, UniProt Q15759) (Q15759 whole entry): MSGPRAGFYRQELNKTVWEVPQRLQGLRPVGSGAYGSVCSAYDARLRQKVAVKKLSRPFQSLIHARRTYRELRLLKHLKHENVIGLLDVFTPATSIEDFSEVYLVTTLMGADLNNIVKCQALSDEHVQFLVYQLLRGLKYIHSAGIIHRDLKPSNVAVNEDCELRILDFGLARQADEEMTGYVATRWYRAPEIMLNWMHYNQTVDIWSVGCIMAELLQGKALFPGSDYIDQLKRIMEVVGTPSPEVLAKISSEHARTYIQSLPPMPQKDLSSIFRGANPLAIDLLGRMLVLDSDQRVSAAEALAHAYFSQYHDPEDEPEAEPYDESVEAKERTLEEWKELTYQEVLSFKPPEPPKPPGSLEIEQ
Sequence of 363 human kinases (including Aurora A/B/C) (Homo sapiens, UniProt Q9H0K1) (Q9H0K1 whole entry): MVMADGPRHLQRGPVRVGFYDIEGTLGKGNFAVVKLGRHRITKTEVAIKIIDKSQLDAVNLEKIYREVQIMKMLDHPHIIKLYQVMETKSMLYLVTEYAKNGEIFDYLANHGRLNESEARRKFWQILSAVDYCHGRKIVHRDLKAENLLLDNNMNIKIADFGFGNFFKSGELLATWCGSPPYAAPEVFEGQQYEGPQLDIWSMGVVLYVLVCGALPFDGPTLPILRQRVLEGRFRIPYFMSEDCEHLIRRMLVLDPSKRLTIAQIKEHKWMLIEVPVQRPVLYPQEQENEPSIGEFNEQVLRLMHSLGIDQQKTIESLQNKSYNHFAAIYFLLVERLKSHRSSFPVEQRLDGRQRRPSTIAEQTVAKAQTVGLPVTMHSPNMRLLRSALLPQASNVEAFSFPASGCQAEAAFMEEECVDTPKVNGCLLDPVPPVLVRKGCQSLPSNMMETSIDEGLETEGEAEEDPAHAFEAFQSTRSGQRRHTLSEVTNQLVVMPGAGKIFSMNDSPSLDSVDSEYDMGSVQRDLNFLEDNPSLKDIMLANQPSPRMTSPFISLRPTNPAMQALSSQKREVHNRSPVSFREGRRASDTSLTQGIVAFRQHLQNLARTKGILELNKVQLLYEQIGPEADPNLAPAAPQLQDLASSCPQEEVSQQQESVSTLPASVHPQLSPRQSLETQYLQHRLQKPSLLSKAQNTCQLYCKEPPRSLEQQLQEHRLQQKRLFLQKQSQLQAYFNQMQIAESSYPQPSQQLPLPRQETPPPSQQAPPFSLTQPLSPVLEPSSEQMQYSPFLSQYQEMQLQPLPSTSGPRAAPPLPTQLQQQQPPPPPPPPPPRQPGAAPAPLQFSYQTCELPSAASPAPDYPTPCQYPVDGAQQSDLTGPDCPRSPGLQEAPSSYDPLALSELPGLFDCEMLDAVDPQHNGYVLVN
Sequence of 363 human kinases (including Aurora A/B/C) (Homo sapiens, UniProt P37173) (P37173 23-567): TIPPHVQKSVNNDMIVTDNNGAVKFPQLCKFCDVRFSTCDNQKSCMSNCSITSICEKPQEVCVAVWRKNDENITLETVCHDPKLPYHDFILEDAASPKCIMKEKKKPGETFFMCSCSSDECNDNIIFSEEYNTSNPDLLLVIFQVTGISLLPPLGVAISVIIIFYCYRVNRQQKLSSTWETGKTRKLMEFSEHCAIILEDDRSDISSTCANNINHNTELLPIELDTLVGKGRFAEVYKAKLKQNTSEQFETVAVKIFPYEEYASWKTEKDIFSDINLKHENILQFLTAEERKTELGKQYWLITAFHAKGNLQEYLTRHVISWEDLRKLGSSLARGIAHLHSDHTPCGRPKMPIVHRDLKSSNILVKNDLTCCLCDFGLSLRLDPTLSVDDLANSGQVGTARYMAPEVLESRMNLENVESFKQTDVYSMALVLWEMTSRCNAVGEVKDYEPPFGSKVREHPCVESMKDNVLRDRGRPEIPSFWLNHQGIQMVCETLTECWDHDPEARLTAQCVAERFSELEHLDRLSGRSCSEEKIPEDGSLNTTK

In the case of `O=C(c1cccc(Cl)c1F)N1CCN(Cc2cccc(Nc3nccs3)n2)CC1` [MK-8745], the “% Enzyme Activity (relative to DMSO controls)” value was found to be 91.67% in [1] (500 nM); 93.63% in [2] (500 nM); 92.96% in experiment [3] (500 nM); 100.59% in experiment [4] (500 nM); 97.09% in experiment [5] (500 nM); 95.34% in experiment [6] (500 nM). Further, the “% Enzyme Activity (relative to DMSO controls)” value worked out at 108.29% in [7] (500 nM); 93.43% in experiment [8] (500 nM); 88.59% in experiment [9] (500 nM); 94.80% in experiment [10] (500 nM); 96.64% in experiment [11] (500 nM); 96.62% in experiment [12] (500 nM). Besides, the remaining activity at 0.5 µM in experiment [1] (500 nM) stood at 92.5%; in [2] (500 nM) it was 94.7%; in experiment [3] (500 nM), 93.2%; in experiment [4] (500 nM), 102%; in [5] (500 nM) it was 99.1%; in [6] (500 nM) it was 98%. The remaining activity at 0.5 µM in experiment [7] (500 nM) was determined as 109%; in [8] (500 nM) it was 93.6%; in experiment [9] (500 nM), 89.1%; in experiment [10] (500 nM), 95.3%; in experiment [11] (500 nM), 98.4%; in experiment [12] (500 nM) it was 98.7%.

Turning to `CCn1cc(-c2ccnc3[nH]c(-c4cccc(CN(C)C)c4)cc23)c(-c2ccc(NC(=O)N(C)C)cc2)n1` [GSK1070916], the remaining activity at 0.1 µM turned out to be 114% in experiment [1]; 94% in experiment [2]; 94.3% in [3]; 109% in experiment [4]; 54.6% in experiment [5]; 95.4% in [6]. Also, the remaining activity at 0.1 µM in experiment [7] was 121%; in experiment [8] it was 90.1%; in [9], 95.3%; in experiment [10], 99.6%; in experiment [11], 95.7%; in [12], 40%.

Regarding `O=C(O)[C@]1(Cc2cccc(Nc3nccs3)n2)CC[C@@H](Oc2cccc(Cl)c2F)CC1` [MK-5108], the remaining activity at 0.1 µM in experiment [1] came out at 68.1%; in experiment [2], 98.7%; in experiment [3], 102%; in experiment [4] it was 88.9%; in experiment [5] it was 67.3%; in experiment [6], 99.5%. The remaining activity at 0.1 µM worked out at 92.6% in experiment [7]; 106% in [8]; 99.4% in [9]; 91.7% in experiment [10]; 99.6% in [11]; 96.5% in experiment [12]. Further, the remaining activity at 0.5 µM stood at 29.1% in experiment [1] (500 nM); 88.8% in experiment [2] (500 nM); 96% in experiment [3] (500 nM); 107% in [4] (500 nM); 33.9% in experiment [5] (500 nM); 101% in experiment [6] (500 nM). The remaining activity at 0.5 µM in experiment [7] (500 nM) turned out to be 86.3%; in experiment [8] (500 nM), 94.4%; in experiment [9] (500 nM), 93.6%; in experiment [10] (500 nM) it was 68.3%; in [11] (500 nM), 97.8%; in [12] (500 nM) it was 93.3%.

The record behind these values is publication PMC4685510, “A Cell Biologist’s Field Guide to Aurora Kinase Inhibitors” (Frontiers in Oncology, 2015).
